The results in this text go back to paper PMC8370666 (Journal of the Iranian Chemical Society, 2021).

Common to all, as to experiment: biochemical
One test has as its target SARS-CoV nsp14 (Severe acute respiratory syndrome coronavirus, UniProt P0C6X7). As to conditions: for IC50: SARS-Cov nap14 IC50; for inhibition at 50 µM: read-out: % of inhibition at 50 μM, SARs-Cov nsp 14.
Test [1] has as its target human RNA N7-MTase (hRNMT) (Homo sapiens, UniProt O43148). It counts as biochemical. The note with it: for inhibition at 50 µM: read-out: % of inhibition at 50 μM, hRNMT.
The target in test [2] is vaccinia virus capping enzyme (D1-D12) (Vaccinia virus, UniProt P04298). The note with it: read-out: % of inhibition at 50 μM, Vaccinia virus D1-D12.

Chain of human RNA N7-MTase (hRNMT) (O43148 whole entry): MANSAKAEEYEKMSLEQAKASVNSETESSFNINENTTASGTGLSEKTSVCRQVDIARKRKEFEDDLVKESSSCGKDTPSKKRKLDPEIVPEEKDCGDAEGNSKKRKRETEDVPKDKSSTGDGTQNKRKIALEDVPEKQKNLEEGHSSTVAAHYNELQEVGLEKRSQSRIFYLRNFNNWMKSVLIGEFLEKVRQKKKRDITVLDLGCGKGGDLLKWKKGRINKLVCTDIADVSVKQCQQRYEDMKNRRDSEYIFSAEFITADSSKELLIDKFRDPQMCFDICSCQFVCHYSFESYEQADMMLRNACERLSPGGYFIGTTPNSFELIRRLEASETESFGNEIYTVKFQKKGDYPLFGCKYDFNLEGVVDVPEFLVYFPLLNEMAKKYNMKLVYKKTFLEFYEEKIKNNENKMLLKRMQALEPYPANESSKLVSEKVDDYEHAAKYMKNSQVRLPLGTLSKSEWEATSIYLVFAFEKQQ

For the compound `CCOC(=O)c1c(N)sc2c1CCC1=C2C(c2ccccc2Cl)C(C#N)=C(N)O1` (centres unmarked) [Compound 6e, Ethyl 2,7-diamino-9-(2-chlorophenyl)-8-cyano-5,9-dihydro-4H-thieno[2,3-f]chromene-3-carboxylate], on SARS-CoV nsp14, inhibition was half-maximal at 390 ± 250 nM (IC50) and the inhibition at 50 µM was found to be 89.2 ± 8.27%. Moreover, in test [1], the “% of inhibition at 50 μM, hRNMT” value is given as “high inhibitions”; the IC50 is 290 ± 80 nM; the inhibition at 50 µM was determined as 80.2 ± 6.28%. In addition, in test [2], the inhibition at 50 µM worked out at 92.5 ± 6.9%.

Take `CCOC(=O)c1c(N)sc2c1CCC1=C2C(c2ccc(OC)cc2)C(C#N)=C(N)O1` (centres unmarked) [Compound 6f, Ethyl 2,7-diamino-8-cyano-9-(4-methoxyphenyl)-5,9-dihydro-4H-thieno[2,3-f]chromene-3-carboxylate]: the 50% inhibitory concentration (IC50) on SARS-CoV nsp14 was 36400 ± 4510 nM; in test [1], 1260 ± 580 nM. For the same compound, the inhibition at 50 µM was found to be 58.3 ± 3.65% on SARS-CoV nsp14, 62.5 ± 5.84% in test [1] and 44.8 ± 5.08% in test [2].

Turning to `CCOC(=O)c1c(N)sc2c1CCC1=C2C(c2ccccc2)C(C#N)=C(N)O1` (centres unmarked) [Compound 6d, Ethyl 2,7-diamino-8-cyano-9-phenyl-5,9-dihydro-4H-thieno[2,3-f]chromene-3-carboxylate], the 50% inhibitory concentration (IC50) against SARS-CoV nsp14 turned out to be 26700 ± 5730 nM; in test [1] it was 10500 ± 2690 nM. Besides, the inhibition at 50 µM at SARS-CoV nsp14 turned out to be 42.6 ± 4.65%; in test [1], 40.3 ± 6.27%; in test [2], 36.3 ± 5.22%.

Turning to `CCOC(=O)C1=C(N)OC2=C(c3sc(=S)n(-c4ccccc4)c3CC2)C1c1ccc(Cl)cc1` (centres unmarked) [Compound 23d, Ethyl 7-amino-9-(4-chlorophenyl)-3-phenyl-2-thioxo-3,4,5,9-tetrahydro-2H-chromeno[6,5-d]thiazole-8-carboxylate], the 50% inhibitory concentration (IC50) was 490 ± 130 nM on SARS-CoV nsp14 and less than 50 nM in test [1]. The inhibition at 50 µM worked out at 57.7 ± 4.26% on SARS-CoV nsp14, 68.6 ± 6.42% in test [1] and 72.3 ± 5.58% in test [2].

Turning to `N#CC1=C(N)OC2=C(CC(=O)CC2)C1c1ccccc1` (centres unmarked) [Compound 4a, 2-Amino-6-oxo-4-phenyl-5,6,7,8-tetrahydro-4H-chromene-3-carbonitrile], at SARS-CoV nsp14, inhibition was half-maximal at 630 ± 320 nM (IC50) and the inhibition at 50 µM came to 93.4 ± 3.68%. Also, in test [1], the “% of inhibition at 50 μM, hRNMT” value is on record as “high inhibitions”; the 50% inhibitory concentration (IC50) was less than 50 nM; the inhibition at 50 µM amounted to 92.3 ± 5.41%. The inhibition at 50 µM in test [2] was 89.3 ± 7.89%.

Consider `N#CC1=C(N)OC2=C(C=C(c3c(N)n[nH]c3N)CC2)C1c1ccccc1Cl` (centres unmarked) [Compound 9a, 2-Amino-4-(2-chlorophenyl)-6-(3,5-diamino-1H-pyrazol-4-yl)-7,8-dihydro-4H-chromene-3-carbonitrile], for which, at SARS-CoV nsp14, the IC50 was 420 ± 190 nM and the inhibition at 50 µM was 96.3 ± 2.4%. In test [1], the “% of inhibition at 50 μM, hRNMT” value is listed as “high inhibitions”; the IC50 was less than 50 nM; the inhibition at 50 µM stood at 93.6 ± 3.71%. Also, the inhibition at 50 µM in test [2] is 95.5 ± 3.23%.

As to `Nc1ncnc2c1ncn2[C@@H]1O[C@H](C[C@@H](N)CC[C@H](N)C(=O)O)[C@@H](O)[C@H]1O` [Sinefungin, reference compound], the inhibition at 50 µM at SARS-CoV nsp14 was found to be 98.36 ± 0.23%. The compound further had an IC50 in test [1] of less than 50 nM.

Regarding `CCOC(=O)c1c(N)sc2c1CCc1c-2sc(=S)n1-c1ccccc1` [Compound 21b, Ethyl 7-amino-3-phenyl-2-thioxo-2,3,4,5-tetrahydrothieno[2',3':3,4]benzo[1,2-d]thiazole-6-carboxylate], the half-maximal inhibitory concentration (IC50) on SARS-CoV nsp14 turned out to be 1080 ± 580 nM; in test [1], 940 ± 360 nM. The inhibition at 50 µM stood at 87.2 ± 5.36% on SARS-CoV nsp14, 88.2 ± 5.38% in test [1] and 90.4 ± 6.53% in test [2]. Moreover, the “% of inhibition at 50 μM, hRNMT” value in test [1] is “high inhibitions”.

Consider `COc1ccc(C2C(C#N)=C(N)OC3=C2CC(=O)CC3)cc1` (centres unmarked) [Compound 4c, 2-Amino-4-(4-methoxyphenyl)-6-oxo-5,6,7,8-tetrahydro-4H-chromene-3-carbonitrile], for which the IC50 against SARS-CoV nsp14 came to 16400 ± 2700 nM; in test [1] it was 32600 ± 1700 nM. For the same compound, the inhibition at 50 µM at SARS-CoV nsp14 stood at 34.6 ± 4.62%; in test [1] it was 51.7 ± 4.62%; in test [2] it was 49.4 ± 6.92%.

On to `N#CC1=C(N)OC2=C(c3sc(=S)n(-c4ccccc4)c3CC2)C1c1ccc(Cl)cc1` (centres unmarked) [Compound 23b, 7-Amino-9-(4-chlorophenyl)-3-phenyl-2-thioxo-3,4,5,9-tetrahydro-2H-chromeno[6,5-d]thiazole-8-carbonitrile], for which, at SARS-CoV nsp14, the IC50 amounted to 350 ± 150 nM and the inhibition at 50 µM amounted to 94.5 ± 6.83%. In test [1], the “% of inhibition at 50 μM, hRNMT” value was “high inhibitions”; the IC50 is less than 50 nM; the inhibition at 50 µM stood at 96.4 ± 7.24%. In test [2], the inhibition at 50 µM was determined as 96.3 ± 8.92%.

As to `CC1=CSC(=C2C(=O)CCC3=C2C(c2ccccc2Cl)C(C#N)=C(N)O3)N1c1ccccc1` (centres unmarked) [Compound 15, 2-Amino-4-(2-chlorophenyl)-5-(4-methyl-3-phenylthiazol-2(3H)-ylidene)-6-oxo-5,6,7,8-tetrahydro-4H-chromene-3-carbonitrile], at SARS-CoV nsp14, half-maximal inhibition (IC50) required 22600 ± 3580 nM and the inhibition at 50 µM came to 89.2 ± 5.83%. Further, in test [1], the “% of inhibition at 50 μM, hRNMT” value is given as “high inhibitions”; half-maximal inhibition (IC50) was put at 4910 ± 2340 nM; the inhibition at 50 µM was determined as 87.3 ± 6.42%. Moreover, the inhibition at 50 µM in test [2] was 90.4 ± 5.68%.

As for `O=C1CCc2c(sc(=S)n2-c2ccccc2)C1` [Compound 18, 3-Phenyl-2-thioxo-2,3,4,5-tetrahydrobenzo[d]thiazol-6(7H)-one], the results for the IC50 (on SARS-CoV nsp14; in test [1]) were 53300 ± 5620 nM and 26500 ± 6280 nM, respectively. Also, the inhibition at 50 µM is 56.4 ± 5.73% on SARS-CoV nsp14, 65.5 ± 4.8% in test [1] and 63.7 ± 7.08% in test [2].

With `CCOC(=O)CSC(Nc1ccccc1)=C1C(=O)CCC2=C1C(c1ccccc1Cl)C(C#N)=C(N)O2` (centres unmarked) [Compound 16, Ethyl 2-(((2-amino-4-(2-chlorophenyl)-3-cyano-6-oxo-7,8-dihydro-4H-chromen-5(6H)-ylidene)(phenylamino)methyl)thio)acetate], on SARS-CoV nsp14, it took 530 ± 180 nM to reach half-maximal inhibition (IC50) and the inhibition at 50 µM stood at 89.2 ± 6.58%. In addition, in test [1], the “% of inhibition at 50 μM, hRNMT” value is given as “high inhibitions”; the midpoint of inhibition, the IC50, lay at 1290 ± 980 nM; the inhibition at 50 µM was 90.3 ± 4.66%. The inhibition at 50 µM in test [2] was 84.3 ± 6.29%.

For `CCOC1C(C#N)=C(N)OC2=C1c1sc(=S)n(-c3ccccc3)c1CC2` (centres unmarked) [Compound 20a, 7-Amino-9-ethoxy-3-phenyl-2-thioxo-3,4,5,9-tetrahydro-2H-chromeno[6,5-d]thiazole-8-carbonitrile], the values for the concentration for half-maximal inhibition (IC50) (at SARS-CoV nsp14; in test [1]) were 42400 ± 5630 nM and 58300 ± 4950 nM, respectively. The inhibition at 50 µM at SARS-CoV nsp14 was found to be 49.2 ± 6.73%; in test [1], 70.4 ± 5.9%; in test [2], 53.5 ± 8.25%.

As for `N#CC1=C(N)OC2=C(CC(=O)CC2)C1c1ccccc1Cl` (centres unmarked) [Compound 4b, 2-Amino-4-(2-chlorophenyl)-6-oxo-5,6,7,8-tetrahydro-4H-chromene-3-carbonitrile], at SARS-CoV nsp14, the IC50 stood at 620 ± 320 nM and the inhibition at 50 µM is 87.5 ± 8.21%. In test [1], the “% of inhibition at 50 μM, hRNMT” value is listed as “high inhibitions”; the IC50 came out at 410 ± 260 nM; the inhibition at 50 µM amounted to 94.6 ± 7.68%. In addition, the inhibition at 50 µM in test [2] is 98.3 ± 5.42%.

As usually defined, the IC50 is the concentration that gives 50% inhibition. A higher IC50 goes with weaker potency. One may read the inhibition as the share of the control response that was lost under treatment.
